For data set [1] the following is noted: rat, i.v.
In the next data set the target is human thrombin (Homo sapiens, UniProt P00734). As to the kind of experiment: Determination of the inhibition constants for thrombin. The format is biochemical. Particulars: human thrombin 100 pM, 0.1 mM substrate S2238, pH 7.8, 37 degrees C., 10 min preincubation. The protocol: The inhibition constants (Ki) for the substances were determined by known enzyme kinetic methods. The purity of the human thrombin employed was determined to be 87% by means of active site titration. […] Inhibitor and enzyme were preincubated for 10 minutes, and the reaction was started by adding the chromogenic substrate S2238.
The specificity of the inhibitors for thrombin and trypsin was determined. The specificity is defined as the ratio of the Ki values for trypsin and thrombin (Table II). […] The Ki values were calculated ([…]) from the IC50 value for thrombin and trypsin. The specificities emerged from the ratio of the trypsin and thrombin values.

Data set [2] addresses T1, Trypsin from bovine pancreas (Bos taurus, UniProt P00760).
T1 construct: from tissue; host or cells: bovine pancreas
T1 sequence (P00760 24-246): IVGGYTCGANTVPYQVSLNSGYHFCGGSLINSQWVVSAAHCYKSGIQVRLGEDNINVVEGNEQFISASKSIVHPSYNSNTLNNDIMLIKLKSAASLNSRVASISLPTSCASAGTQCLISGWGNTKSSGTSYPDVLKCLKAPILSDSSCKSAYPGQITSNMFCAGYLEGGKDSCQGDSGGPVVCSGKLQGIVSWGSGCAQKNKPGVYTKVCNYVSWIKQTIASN
As to the kind of experiment: Determination of the specificity of the inhibitors (trypsin versus thrombin). The format is biochemical. Particulars: ratio of the Ki values for trypsin and thrombin; Ki calculated from IC50. The method, then:
The specificity of the inhibitors for thrombin and trypsin was determined. The specificity is defined as the ratio of the Ki values for trypsin and thrombin (Table II). […] The enzymatic reaction was started by adding the substrate Chromozym TRY (7.1×10^-5 M). The liberation of pNA was measured at 405 nm after one hour. The IC50 values for thrombin were determined in an analogous manner, with the exceptions that human thrombin, buffer (50 mM tris-HCl, 50 mM NaCl, pH 7.8) and 5×10^-5 M S 2238 were used. The Ki values were calculated ([…]) from the IC50 value for thrombin and trypsin. The specificities emerged from the ratio of the trypsin and thrombin values.

The nature of the next data set: Enteral administration. Particulars: in vivo.

Take `N=C(N)c1ccc(CC(NC(=O)[C@H](CC(=O)O)NS(=O)(=O)c2ccc3ccccc3c2)C(=O)N2CCCCC2)cc1` (stereo partly drawn) [β-naphthylsulfonyl-L-Asp-D,L-Aph-Pip, β-Naphthylsulfonyl-L-Asp-D,L-Aph-Pip]: the LD50 entry in data set [1] was “about 120 mg/kg”. On human thrombin, “4-Methoxy-2,3,6-trimethylphenylsulfonyl-L-Cys(SO3 H)-D-p-amidinophenylalanyl Piperidide [Mtr-L-Cys (SO3 H)-D-Aph-Pip]” displayed an inhibitory constant (Ki) of 0.6 nM. For the same compound, the Specificity thrombin/trypsin in data set [2] is reported as 150. Turning to `COc1cc(C)c(S(=O)(=O)N[C@@H](CC(=O)NCCCC(=O)O)C(=O)N[C@H](Cc2ccc(C(=N)N)cc2)C(=O)N2CCCCC2)c(C)c1C` [4-Methoxy-2,3,6-trimethylbenzenesulfonyl-L-aspartic Acid (Gamma-aminobutyric Acid)-D-Aph-piperidide], at human thrombin, the Ki was found to be 0.8 nM. Besides, in data set [2], the Specificity thrombin/trypsin was 1810. Take `COc1cc(C)c(S(=O)(=O)N[C@@H](CC(=O)N[C@@H]2O[C@H](C(=O)O)[C@@H](O)[C@H](O)[C@H]2O)C(=O)N[C@H](Cc2ccc(C(=N)N)cc2)C(=O)N2CCCCC2)c(C)c1C` [4-Methoxy-2,3,6-trimethylphenylsulfonyl-L-asparaginyl-N-[β-D-glucopyranosyl)uronic acid]-D-p-amidinophenylalanyl Piperidide]: the affinity on human thrombin, expressed as Ki, was 0.085 nM. Also, in data set [2], the Specificity thrombin/trypsin is on record as 4106. Take `COc1cc(C)c(S(=O)(=O)N[C@@H](CC(=O)OC(C)C)C(=O)N[C@H](Cc2ccc(C(=N)N)cc2)C(=O)N2CCCCC2)c(C)c1C` [Mtr-Asp(iPr)-Aph-Pip, Mtr-L-Asp(OiPr)-D-Aph-Pip]: the inhibition constant (Ki) at human thrombin amounted to 0.6 nM. Also, the Specificity thrombin/trypsin in data set [2] is 378. The compound `COc1cc(C)c(S(=O)(=O)N[C@@H](CC(=O)O)C(=O)N[C@H](Cc2ccc(C(=N)N)cc2)C(=O)N2CCCCC2)c(C)c1C` [Mtr-Asp-D-Aph-Pip, 4-Methoxy-2,3,6-trimethylphenylsulfonyl-L-Asp-D-p-amidinophenylalanyl Piperidide] displayed a Ki at human thrombin of 1.5 nM. Further, the Specificity thrombin/trypsin in data set [2] is 125. Moreover, the “possibility of enteral administration” value in “Enteral administration” is on record as “possibility of enteral administration”. Consider “Beta-Naphthylsulfonyl-L-aspartic Acid D-p-amidinophenyl-alanyl-piperidide [Nas-Asp-D-Aph-Pip]”, for which the inhibition constant (Ki) at human thrombin worked out at 10 nM. For the same compound, the Specificity thrombin/trypsin in data set [2] is recorded as 7. With `N=C(N)c1ccc(CC(NC(=O)CNS(=O)(=O)c2ccc3ccccc3c2)C(=O)N2CCCCC2)cc1` (stereo not drawn) [Napap, beta-naphthylsulfonyl-glycyl-R,S-4-amidinophenylalanyl piperidide, reference compound], in data set [2], the Specificity thrombin/trypsin is listed as 24.

With `N=C(N)c1ccc(C[C@H](NC(=O)[C@H](CC(N)=O)NS(=O)(=O)c2ccc3ccccc3c2)C(=O)N2CCCCC2)cc1` [Nas-Asn-Aph-Pip], the Ki at human thrombin came to 6 nM. The Specificity thrombin/trypsin in data set [2] is 48. Compound `COc1cc(C)c(S(=O)(=O)NC(CC(=O)OC(C)(C)C)C(=O)NC(Cc2ccc(C(=N)N)cc2)C(=O)N2CCCCC2)c(C)c1C` [Mtr-Asp(tBu)-Aph-Pip, Mtr-L-Asp(OtBu)-D-Aph-Pip] showed a Ki at human thrombin of 0.9 nM. The Specificity thrombin/trypsin in data set [2] is listed as 297. For `COc1cc2ccc(S(=O)(=O)N[C@@H](CC(=O)O)C(=O)N[C@H](Cc3ccc(C(=N)N)cc3)C(=O)N3CCCCC3)cc2cc1OC` [Dmn-Asp-D-Aph-Pip, 6,7-Dimethoxy-β-naphthalenesulfonyl-L-Asp-D-p-amidinophenylalanyl Piperidide] the same measures were 6 nM and 230.

(Values after patent publication US5457114A, “Amidinophenylalanine derivatives, a process for the preparation thereof, use thereof and agents containing these as anticoagulants” (Behringwerke Aktiengesellschaft, priority 1991, dated 1995).)
